Data reported in ChEMBL document CHEMBL4507292 (2021).

What was measured:
Rattus norvegicus [1] = species: Rattus norvegicus; details: Compound concentration 10.0 uM
[2] = target: Prostaglandin E2 receptor EP4 subtype (Homo sapiens) (UniProt P35408); experiment: Prostanoid EP4 Eurofins-Panlabs radioligand binding assay; set-up: ligand concentration 0.5 nM; details: Compound concentration 10.0 uM
[3] = target: Melanocortin receptor 4 (Homo sapiens) (UniProt P32245); experiment: Inhibition of Melanocortin MC4 at 10 µM in the Eurofins-Panlabs radioligand binding assay (Eurofins_assay_251350); set-up: ligand concentration 0.02 nM; details: Compound concentration 10.0 uM
[4] = target: Sodium-dependent dopamine transporter (Homo sapiens, UniProt Q01959); experiment: Inhibition of Transporter, Dopamine (DAT) at compound concentration of 10.0 uM in the Eurofins-Panlabs radioligand binding assay (Eurofins_assay_220320); set-up: ligand concentration 0.15 nM, non-specific ligand with concentration 10 uM Nomifensine, incubation time 3 h, incubation temperature 4 C
[5] = target: 5-hydroxytryptamine receptor 1A (Homo sapiens, UniProt P08908); experiment: Inhibition of Serotonin (5-Hydroxytryptamine) 5-HT1A at compound concentration of 10.0 uM in the Eurofins-Panlabs radioligand binding assay (Eurofins_assay_271110); set-up: ligand concentration 1.5 nM, non-specific ligand with concentration 10 uM Metergoline, incubation time 60 min, incubation temperature 25 C
[6] = target: Adenosine receptor A2a (Homo sapiens) (UniProt P29274); details: Compound concentration 10.0 uM
[7] = (§1) Protein Serine/Threonine Kinase, PKA, Non-Selective Eurofins-Panlabs enzyme assay; type: protein-complex assay, Bos taurus; set-up: substrate with concentration 370 µg/mL Histone Type III-S, incubation time 15 min, incubation temperature 25 °C
Bos taurus = species: Bos taurus; experiment: as §1; type: protein-complex assay; set-up: substrate with concentration 370 µg/mL Histone Type III-S, incubation time 15 min, incubation temperature 25 °C
Rattus norvegicus [8] = species: Rattus norvegicus; experiment: Serotonin (5-Hydroxytryptamine) 5-HT2, Non-Selective Eurofins-Panlabs radioligand binding assay; type: protein assay; details: Compound concentration 10.0 uM
[9] = target: Muscarinic acetylcholine receptor M3 (Homo sapiens) (UniProt P20309); details: Compound concentration 10.0 uM
[10] = target: T1, 5-hydroxytryptamine receptor 1A (Homo sapiens) (UniProt P08908)
T1 sequence (whole entry): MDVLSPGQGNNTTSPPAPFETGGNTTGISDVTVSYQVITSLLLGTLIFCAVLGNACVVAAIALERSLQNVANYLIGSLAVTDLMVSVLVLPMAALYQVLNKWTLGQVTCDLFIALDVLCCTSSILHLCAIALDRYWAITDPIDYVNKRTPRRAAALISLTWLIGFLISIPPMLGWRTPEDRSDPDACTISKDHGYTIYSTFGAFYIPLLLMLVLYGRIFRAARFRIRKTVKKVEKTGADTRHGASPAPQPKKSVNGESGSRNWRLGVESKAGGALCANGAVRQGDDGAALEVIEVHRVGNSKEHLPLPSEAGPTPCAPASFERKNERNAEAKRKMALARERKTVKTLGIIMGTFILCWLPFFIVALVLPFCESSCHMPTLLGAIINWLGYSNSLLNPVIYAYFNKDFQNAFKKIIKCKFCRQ

[11] = target: L-type calcium channel, dihydropyridine site (Cav1.2 alpha-1C) (Homo sapiens, UniProt Q13936); experiment: Inhibition of Calcium Channel L-Type, Dihydropyridine at 10 µM in the Eurofins-Panlabs radioligand binding assay (Eurofins_assay_214600); set-up: ligand concentration 0.1 nM, non-specific ligand with concentration 1 µM Nitrendipine, incubation time 90 min, incubation temperature 25 °C; details: Wistar, rat, rat cerebral cortex preparation, probe [3H] Nitrendipine, 0.1 nM; compound concentration 10 uM; target entry is the homologue from another species
Phosphodiesterase 3 = Phosphodiesterase 3 (Homo sapiens, UniProt Q14432+Q13370); experiment: Inhibition of Phosphodiesterase PDE3 at compound concentration of 10.0 uM in the Eurofins-Panlabs enzyme assay (Eurofins_assay_152000); type: protein assay; set-up: substrate with concentration 1.01 uM [3H] cAMP + cAMP, incubation time 20 min, incubation temperature 25 C
D(1B) dopamine receptor = D(1B) dopamine receptor (Homo sapiens, UniProt P21918); experiment: Dopamine D5 Eurofins-Panlabs radioligand binding assay; details: concentration not given here
Caspase-8 (Homo sapiens) = Caspase-8 (Homo sapiens) (UniProt Q14790); experiment: Peptidase, CASP8 (Caspase 8) Eurofins-Panlabs enzyme assay; details: concentration not given here
[12] = target: Melanocortin receptor 5 (Homo sapiens) (UniProt P33032); experiment: Inhibition of Melanocortin MC5 at 10 µM in the Eurofins-Panlabs radioligand binding assay (Eurofins_assay_251400); set-up: ligand concentration 0.035 nM; details: Compound concentration 10.0 uM
[13] = target: monoamine oxidase A (MAO-A) (Homo sapiens, UniProt P21397); experiment: Inhibition of Monoamine Oxidase MAO-A at compound concentration of 10.0 uM in the Eurofins-Panlabs enzyme assay (Eurofins_assay_140010); set-up: substrate with concentration 50 uM Kynuramine, incubation time 60 min, incubation temperature 37 C; details: human recombinant MAO-A expressed in insect Hi5 cells, probe kynuramine, 50 uM, compound concentration 10 uM
[14] = target: Alpha-2C adrenergic receptor (Homo sapiens, UniProt P18825); experiment: (§2) Adrenergic alpha2C Eurofins-Panlabs radioligand binding assay; set-up: ligand concentration 1 nM, non-specific ligand with concentration 10 µM WB-4101, incubation time 60 min, incubation temperature 25 °C
[15] = target: T2, Alpha-2C adrenergic receptor (Homo sapiens) (UniProt P18825); experiment: as §2; set-up: ligand concentration 1 nM, non-specific ligand with concentration 10 µM WB-4101, incubation time 60 min, incubation temperature 25 °C
T2 sequence (whole entry): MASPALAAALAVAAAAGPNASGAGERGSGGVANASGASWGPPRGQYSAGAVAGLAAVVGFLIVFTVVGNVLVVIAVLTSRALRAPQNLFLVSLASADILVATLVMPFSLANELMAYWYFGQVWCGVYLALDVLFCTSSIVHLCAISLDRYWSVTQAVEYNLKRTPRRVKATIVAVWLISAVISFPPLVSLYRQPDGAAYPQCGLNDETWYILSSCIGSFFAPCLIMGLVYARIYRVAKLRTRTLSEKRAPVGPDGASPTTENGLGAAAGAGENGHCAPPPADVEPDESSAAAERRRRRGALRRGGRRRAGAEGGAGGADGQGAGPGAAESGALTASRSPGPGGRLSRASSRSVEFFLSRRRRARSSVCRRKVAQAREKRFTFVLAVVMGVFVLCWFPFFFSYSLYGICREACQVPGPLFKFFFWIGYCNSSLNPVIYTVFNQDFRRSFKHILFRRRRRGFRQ

[16] = target: Somatostatin receptor type 1 (Homo sapiens) (UniProt P30872); experiment: Somatostatin sst1 Eurofins-Panlabs radioligand binding assay; set-up: ligand concentration 0.1 nM; details: Compound concentration 10.0 uM
[17] = Compound concentration 100.0 uM

D(1B) dopamine receptor, sequence (P21918 whole entry): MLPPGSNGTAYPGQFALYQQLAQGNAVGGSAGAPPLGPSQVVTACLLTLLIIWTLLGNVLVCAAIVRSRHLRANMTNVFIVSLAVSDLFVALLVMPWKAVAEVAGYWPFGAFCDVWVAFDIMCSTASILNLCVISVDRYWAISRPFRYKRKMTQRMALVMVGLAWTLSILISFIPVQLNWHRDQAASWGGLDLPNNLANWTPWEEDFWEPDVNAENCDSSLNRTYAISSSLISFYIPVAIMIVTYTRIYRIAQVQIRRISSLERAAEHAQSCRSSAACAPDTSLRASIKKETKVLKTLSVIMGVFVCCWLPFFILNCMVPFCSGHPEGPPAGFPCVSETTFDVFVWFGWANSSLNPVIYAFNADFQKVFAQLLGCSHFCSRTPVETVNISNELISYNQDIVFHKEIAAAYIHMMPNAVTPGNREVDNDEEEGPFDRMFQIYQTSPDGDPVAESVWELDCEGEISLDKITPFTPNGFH
Sodium-dependent dopamine transporter, sequence (Q01959 whole entry): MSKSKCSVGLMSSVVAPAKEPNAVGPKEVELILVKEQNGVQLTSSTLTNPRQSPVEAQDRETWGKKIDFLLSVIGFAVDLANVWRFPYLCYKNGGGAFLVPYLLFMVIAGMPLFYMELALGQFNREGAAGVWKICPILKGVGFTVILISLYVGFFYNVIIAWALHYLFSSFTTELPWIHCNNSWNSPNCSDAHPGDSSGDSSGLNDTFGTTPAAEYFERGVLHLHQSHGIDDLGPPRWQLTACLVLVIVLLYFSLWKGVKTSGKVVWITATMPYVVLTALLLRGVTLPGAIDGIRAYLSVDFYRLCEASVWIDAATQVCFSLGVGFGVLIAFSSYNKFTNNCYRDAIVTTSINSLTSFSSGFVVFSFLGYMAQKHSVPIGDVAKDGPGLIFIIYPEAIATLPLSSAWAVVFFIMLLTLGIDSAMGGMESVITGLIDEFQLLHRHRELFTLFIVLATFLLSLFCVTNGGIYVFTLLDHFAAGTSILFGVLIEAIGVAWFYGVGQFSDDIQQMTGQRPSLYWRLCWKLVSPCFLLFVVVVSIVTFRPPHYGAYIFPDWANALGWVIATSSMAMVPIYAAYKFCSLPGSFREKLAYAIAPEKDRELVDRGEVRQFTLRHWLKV
Caspase-8 (Homo sapiens), sequence (Q14790 217-374 limits assumed): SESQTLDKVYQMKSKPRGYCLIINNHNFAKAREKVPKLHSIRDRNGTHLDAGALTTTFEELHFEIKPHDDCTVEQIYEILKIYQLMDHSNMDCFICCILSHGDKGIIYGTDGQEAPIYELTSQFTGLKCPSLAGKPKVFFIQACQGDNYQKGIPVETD
Caspase-8 (Homo sapiens), sequence (Q14790 385-479 limits assumed): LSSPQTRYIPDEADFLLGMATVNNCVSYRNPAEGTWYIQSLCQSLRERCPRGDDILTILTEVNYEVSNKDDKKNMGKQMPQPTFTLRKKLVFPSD
Somatostatin receptor type 1 (Homo sapiens), sequence (P30872 whole entry): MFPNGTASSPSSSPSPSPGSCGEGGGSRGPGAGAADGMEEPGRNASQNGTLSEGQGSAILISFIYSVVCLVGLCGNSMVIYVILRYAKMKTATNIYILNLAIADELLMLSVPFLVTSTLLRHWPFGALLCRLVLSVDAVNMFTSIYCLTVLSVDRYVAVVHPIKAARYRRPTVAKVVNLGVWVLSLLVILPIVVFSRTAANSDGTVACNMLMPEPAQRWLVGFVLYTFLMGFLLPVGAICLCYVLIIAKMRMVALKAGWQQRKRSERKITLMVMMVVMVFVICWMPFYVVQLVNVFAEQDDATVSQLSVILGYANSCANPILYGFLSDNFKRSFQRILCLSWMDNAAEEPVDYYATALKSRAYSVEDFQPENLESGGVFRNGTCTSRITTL
Prostaglandin E2 receptor EP4 subtype (Homo sapiens), sequence (P35408 whole entry): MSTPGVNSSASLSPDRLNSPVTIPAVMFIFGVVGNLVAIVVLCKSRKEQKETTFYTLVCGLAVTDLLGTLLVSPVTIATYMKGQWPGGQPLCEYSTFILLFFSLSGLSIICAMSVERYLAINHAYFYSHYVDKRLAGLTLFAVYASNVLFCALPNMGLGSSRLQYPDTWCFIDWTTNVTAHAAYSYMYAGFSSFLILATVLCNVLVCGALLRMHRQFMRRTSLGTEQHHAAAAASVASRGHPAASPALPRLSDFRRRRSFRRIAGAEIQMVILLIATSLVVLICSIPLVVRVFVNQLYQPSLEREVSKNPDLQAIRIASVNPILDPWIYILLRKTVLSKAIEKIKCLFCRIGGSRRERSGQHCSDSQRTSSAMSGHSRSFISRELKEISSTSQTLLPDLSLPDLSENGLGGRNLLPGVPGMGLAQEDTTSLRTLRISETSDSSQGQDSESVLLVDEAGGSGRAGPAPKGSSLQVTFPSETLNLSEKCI
L-type calcium channel, dihydropyridine site (Cav1.2 alpha-1C), sequence (Q13936 whole entry): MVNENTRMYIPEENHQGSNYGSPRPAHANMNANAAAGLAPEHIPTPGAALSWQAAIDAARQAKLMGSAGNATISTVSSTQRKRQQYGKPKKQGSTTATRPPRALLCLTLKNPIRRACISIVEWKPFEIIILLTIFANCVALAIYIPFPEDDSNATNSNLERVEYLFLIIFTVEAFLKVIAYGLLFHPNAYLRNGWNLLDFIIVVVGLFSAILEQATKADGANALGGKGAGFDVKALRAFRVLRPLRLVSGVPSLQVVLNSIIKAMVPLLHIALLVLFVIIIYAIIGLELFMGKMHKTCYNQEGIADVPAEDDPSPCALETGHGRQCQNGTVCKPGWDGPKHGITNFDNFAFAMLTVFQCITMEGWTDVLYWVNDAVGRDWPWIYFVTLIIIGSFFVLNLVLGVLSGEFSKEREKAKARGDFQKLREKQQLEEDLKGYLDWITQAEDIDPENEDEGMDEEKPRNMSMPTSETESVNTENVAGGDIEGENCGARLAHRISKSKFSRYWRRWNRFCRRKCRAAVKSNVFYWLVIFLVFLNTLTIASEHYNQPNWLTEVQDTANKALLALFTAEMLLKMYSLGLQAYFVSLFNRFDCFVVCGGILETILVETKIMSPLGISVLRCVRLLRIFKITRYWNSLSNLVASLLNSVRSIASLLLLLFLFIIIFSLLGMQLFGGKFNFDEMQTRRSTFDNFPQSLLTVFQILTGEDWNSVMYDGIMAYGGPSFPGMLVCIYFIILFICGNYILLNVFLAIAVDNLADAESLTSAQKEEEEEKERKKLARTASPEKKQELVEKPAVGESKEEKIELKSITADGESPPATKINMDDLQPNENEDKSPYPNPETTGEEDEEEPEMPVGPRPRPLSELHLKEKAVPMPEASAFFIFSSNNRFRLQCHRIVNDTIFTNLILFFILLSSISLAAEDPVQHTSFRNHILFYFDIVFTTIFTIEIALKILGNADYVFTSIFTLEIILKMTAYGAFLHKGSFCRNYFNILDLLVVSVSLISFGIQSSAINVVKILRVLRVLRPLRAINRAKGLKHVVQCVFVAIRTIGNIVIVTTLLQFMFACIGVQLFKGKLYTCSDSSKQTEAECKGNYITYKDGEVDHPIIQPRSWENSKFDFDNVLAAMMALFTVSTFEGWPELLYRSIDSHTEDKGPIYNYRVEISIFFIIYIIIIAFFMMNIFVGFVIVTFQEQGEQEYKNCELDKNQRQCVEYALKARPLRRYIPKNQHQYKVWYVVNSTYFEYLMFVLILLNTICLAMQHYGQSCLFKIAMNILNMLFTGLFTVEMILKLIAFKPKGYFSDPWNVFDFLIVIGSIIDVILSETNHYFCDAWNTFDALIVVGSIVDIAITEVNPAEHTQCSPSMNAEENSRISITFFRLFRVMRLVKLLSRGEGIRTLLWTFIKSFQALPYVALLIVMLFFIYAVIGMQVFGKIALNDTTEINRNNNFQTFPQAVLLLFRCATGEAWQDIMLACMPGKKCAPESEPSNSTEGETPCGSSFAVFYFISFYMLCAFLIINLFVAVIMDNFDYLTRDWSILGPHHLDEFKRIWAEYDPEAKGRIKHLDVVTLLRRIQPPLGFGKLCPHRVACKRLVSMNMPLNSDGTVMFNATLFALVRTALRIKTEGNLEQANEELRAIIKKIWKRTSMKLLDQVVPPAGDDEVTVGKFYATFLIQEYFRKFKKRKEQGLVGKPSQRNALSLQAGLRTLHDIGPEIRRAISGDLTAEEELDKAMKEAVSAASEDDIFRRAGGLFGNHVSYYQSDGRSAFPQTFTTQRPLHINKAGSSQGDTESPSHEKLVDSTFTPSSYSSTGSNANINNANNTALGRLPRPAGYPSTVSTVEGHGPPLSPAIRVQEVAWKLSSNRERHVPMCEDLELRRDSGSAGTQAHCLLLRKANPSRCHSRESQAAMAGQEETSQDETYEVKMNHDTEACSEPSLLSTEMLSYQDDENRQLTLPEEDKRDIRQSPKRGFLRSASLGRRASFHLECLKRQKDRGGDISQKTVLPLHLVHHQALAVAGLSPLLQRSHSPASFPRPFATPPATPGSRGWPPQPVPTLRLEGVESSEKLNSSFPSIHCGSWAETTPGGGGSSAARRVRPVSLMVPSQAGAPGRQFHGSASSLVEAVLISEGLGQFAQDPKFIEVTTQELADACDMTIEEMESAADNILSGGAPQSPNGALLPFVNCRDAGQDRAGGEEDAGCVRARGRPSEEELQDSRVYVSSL
monoamine oxidase A (MAO-A), sequence (P21397 whole entry): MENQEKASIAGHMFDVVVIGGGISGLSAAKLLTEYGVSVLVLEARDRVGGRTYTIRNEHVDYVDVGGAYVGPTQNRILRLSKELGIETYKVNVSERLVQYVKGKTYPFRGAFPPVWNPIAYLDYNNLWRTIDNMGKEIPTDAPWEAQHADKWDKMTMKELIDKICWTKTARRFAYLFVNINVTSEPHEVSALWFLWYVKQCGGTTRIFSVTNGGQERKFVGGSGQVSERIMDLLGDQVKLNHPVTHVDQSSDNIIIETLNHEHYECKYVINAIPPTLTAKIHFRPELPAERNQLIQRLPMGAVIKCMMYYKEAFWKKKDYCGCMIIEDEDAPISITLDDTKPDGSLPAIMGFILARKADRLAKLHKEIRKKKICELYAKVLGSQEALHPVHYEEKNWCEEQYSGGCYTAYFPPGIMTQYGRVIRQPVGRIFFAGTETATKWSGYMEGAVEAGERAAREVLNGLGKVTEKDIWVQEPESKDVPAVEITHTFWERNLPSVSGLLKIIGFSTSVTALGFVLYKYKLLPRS

Compound: O=C(O)c1cc(-c2ccc(C3CCNCC3)cc2)c2ccc(-c3ccc(C(F)(F)F)cc3)cc2c1 [PPTN]
- inhibition (Homo sapiens; Compound concentration 0.01 uM): -3%
- inhibition (Homo sapiens; Compound concentration 0.1 uM): -3%
- inhibition (Homo sapiens; Compound concentration 1.0 uM): -8%
- inhibition (Homo sapiens; Compound concentration 10.0 uM): 67%
- inhibition (Rattus norvegicus [1]): 3%
- inhibition [2]: 37%
- inhibition [3]: 28%
- IC50 [4]: 2310 nM
- Ki [4]: 1830 nM
- IC50 [5]: 7.01 µM
- Ki [5]: 4 µM
- inhibition [6]: 38%
- IC50 [7]: 11.4 µM
- inhibition (Bos taurus; Compound concentration 0.1 uM): -10%
- inhibition (Bos taurus; Compound concentration 1.0 uM): 9%
- inhibition (Bos taurus; Compound concentration 10.0 uM): 46%
- inhibition (Bos taurus; [17]): 91%
- inhibition (Rattus norvegicus [8]): 0%
- inhibition [9]: 11%
- inhibition ([10]; Compound concentration 0.01 uM): 0%
- inhibition ([10]; Compound concentration 0.1 uM): -2%
- inhibition ([10]; Compound concentration 1.0 uM): 4%
- inhibition ([10]; Compound concentration 10.0 uM): 64%
- inhibition at 90 min, 10 µM [11]: 20% (not active)
- IC50 (Phosphodiesterase 3): 51.5 µM
- inhibition (Phosphodiesterase 3; Compound concentration 0.1 uM): -7%
- inhibition (Phosphodiesterase 3; Compound concentration 1.0 uM): 4%
- inhibition (Phosphodiesterase 3; Compound concentration 10.0 uM): 28%
- inhibition (Phosphodiesterase 3; [17]): 59%
- inhibition (D(1B) dopamine receptor): 7%
- inhibition (Caspase-8 (Homo sapiens)): 7%
- inhibition [12]: 41%
- inhibition at 60 min, 10 µM [13]: 22% (not active)
- IC50 [14]: 6.88 µM
- Ki [14]: 1000 nM
- inhibition ([15]; Compound concentration 0.01 uM): -4%
- inhibition ([15]; Compound concentration 0.1 uM): -2%
- inhibition ([15]; Compound concentration 1.0 uM): 6%
- inhibition ([15]; Compound concentration 10.0 uM): 63%
- inhibition [16]: 34%
